Results: patent publication US4902720A (priority 1988, dated 1990)

Legend:
[1] = tested on: HSV-1 and HSV-2; type: cell-based; conditions: summary
[2] = tested on: Flow 1000 cells (foreskin cells); conditions: 25 mg/ml, 48 hours, 37° C.
Protocol: (§1) Healthy confluent monolayer cell cultures were overlaid with 1 ml of the drug and incubated for 48 hours at 37° C. and then stained. Cell cultures with maintenance media were used as controls.

[3] = tested on: RK-13 cells; conditions: 25 mg/ml, 48 hours, 37° C.
Protocol: as §1

[4] = tested on: Vero cells; conditions: 25 mg/ml, 48 hours, 37° C.
Protocol: as §1

[5] = tested on: HSV-2 (333 strain); experiment: Plaque inhibition by HMB, HSV-2 333 strain in Vero cells (third series, Experiments 1M-1P); type: cell-based
Protocol: In this experiment, 25 mg/ml HMB was tested on Vero cells infected with HSV-2. The virus control cultures, without HMB, had 705 plaque.
The number of plaque on the virus control was about 10 to 12 plaque.
In this experiment, 25 mg/ml, 20 mg/ml, and 15 mg/ml of HMB concentrations were tested on Vero cells infected with HSV-2. […] The experimental flasks had as many, or more, plaque as the control, with an average of 154 plaque for the control and 169 plaque for the HMB-treated flasks.
HMB was further tested at a concentration of 20 mg/ml of reinfected Vero cells.

`C[N+](C)(C)CCCCCC[N+](C)(C)C` [HMB, hexamethonium bromide] was tested, and the “in vitro replication of HSV-1 and HSV-2” value [1] was “inhibit the in vitro replication of HSV-1 and HSV-2”, the toxicity [2] was “no toxicity” and the toxicity [3] was “slight toxicity”. The toxicity [4] was “no toxicity”, the “appearance of cell layer” value ([5]; Exp. 1M, 25 mg/ml HMB) was “thin cell layer” and the number of plaque ([5]; Exp. 1M, 25 mg/ml HMB, control 705) was 142 plaque. For the same molecule, the inhibition of plaque ([5]; Exp. 1N, 20 mg/ml HMB, control about 10 to 12 plaque) was “complete inhibition of plaque”, the effect on plaque ([5]; Exp. 1O, 15 mg/ml HMB) was “did not have any effect” and the “average number of plaque” value ([5]; Exp. 1O, 15 mg/ml HMB, control 154) was 169 plaque. For the same molecule, the number of plaque ([5]; Exp. 1O, 20 mg/ml HMB) was “no plaque”, the “toxicity to the monolayer” value ([5]; Exp. 1O, 25 mg/ml HMB) was “toxic to the monolayer” and the number of plaque ([5]; Exp. 1O, 25 mg/ml HMB, most likely due to toxicity) was “no plaque”. It also gave an inhibition at 25000 µg/mL ([5]; Human alphaherpesvirus 2, Vero, Exp. 1M, 25 mg/ml HMB) of 80% and an inhibition at 20000 µg/mL ([5]; Human alphaherpesvirus 2, Vero, Exp. 1P, 20 mg/ml HMB) of 91%.
